Data taken from PubChem BioAssay (NCI).
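Cultured in 96-well plates, cells were exposed to test compound for 48 hours across five concentrations. Definition used: TGI = concentration required for complete inhibition of growth.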

Key:
Assay in all cases: NCI tumour cell line growth inhibition, 48 h
786-0 renal = system: 786-0 renal
A498 renal = system: A498 renal
A549 NSCLC = system: A549 NSCLC
ACHN renal = system: ACHN renal
BT-549 breast = system: BT-549 breast
CAKI-1 renal = system: CAKI-1 renal
COLO 205 colon = system: COLO 205 colon
DU-145 prostate = system: DU-145 prostate
EKVX NSCLC = system: EKVX NSCLC
HCT-116 colon = system: HCT-116 colon
HCT-15 colon = system: HCT-15 colon
HOP-62 NSCLC = system: HOP-62 NSCLC
HOP-92 NSCLC = system: HOP-92 NSCLC
HS 578T breast = system: HS 578T breast
HT29 colon = system: HT29 colon
IGROV1 ovarian = system: IGROV1 ovarian
K-562 leukemia = system: K-562 leukemia
KM12 colon = system: KM12 colon
LOX IMVI melanoma = system: LOX IMVI melanoma
M14 melanoma = system: M14 melanoma
MALME-3M melanoma = system: MALME-3M melanoma
MCF7 breast = system: MCF7 breast
MDA-MB-231 breast = system: MDA-MB-231 breast
MDA-MB-435 = system: MDA-MB-435
MDA-N = system: MDA-N
MOLT-4 leukemia = system: MOLT-4 leukemia
NCI-H226 lung = system: NCI-H226 lung
NCI-H460 lung = system: NCI-H460 lung
NCI/ADR-RES ovarian = system: NCI/ADR-RES ovarian
OVCAR-3 ovarian = system: OVCAR-3 ovarian
OVCAR-4 ovarian = system: OVCAR-4 ovarian
OVCAR-5 ovarian = system: OVCAR-5 ovarian
OVCAR-8 ovarian = system: OVCAR-8 ovarian
PC-3 prostate = system: PC-3 prostate
RPMI-8226 leukemia = system: RPMI-8226 leukemia
RXF 393 renal = system: RXF 393 renal
SF-268 CNS = system: SF-268 CNS
SF-295 CNS = system: SF-295 CNS
SF-539 CNS = system: SF-539 CNS
SK-MEL-2 melanoma = system: SK-MEL-2 melanoma
SK-MEL-28 melanoma = system: SK-MEL-28 melanoma
SK-MEL-5 melanoma = system: SK-MEL-5 melanoma
SK-OV-3 ovarian = system: SK-OV-3 ovarian
SN12C renal = system: SN12C renal
SNB-19 CNS = system: SNB-19 CNS
SNB-75 CNS = system: SNB-75 CNS
SR leukemia = system: SR leukemia
SW-620 colon = system: SW-620 colon
T-47D breast = system: T-47D breast
TK-10 renal = system: TK-10 renal
U251 CNS = system: U251 CNS
UACC-257 melanoma = system: UACC-257 melanoma
UACC-62 melanoma = system: UACC-62 melanoma
UO-31 renal = system: UO-31 renal
CCRF-CEM leukemia = system: CCRF-CEM leukemia
HCC-2998 colon = system: HCC-2998 colon
HL-60(TB) leukemia = system: HL-60(TB) leukemia
NCI-H23 lung = system: NCI-H23 lung
NCI-H522 lung = system: NCI-H522 lung

N#CCCN(CCC#N)c1ccc(/C=C2\N=C(c3ccccc3)N(c3ccc(F)cc3)C2=O)cc1
TGI (786-0 renal): > 100 µM
TGI (A498 renal): > 100 µM
TGI (A549 NSCLC): > 100 µM
TGI (ACHN renal): > 100 µM
TGI (BT-549 breast): > 100 µM
TGI (CAKI-1 renal): > 100 µM
TGI (COLO 205 colon): > 100 µM
TGI (DU-145 prostate): > 100 µM
TGI (EKVX NSCLC): > 100 µM
TGI (HCT-116 colon): > 100 µM
TGI (HCT-15 colon): > 100 µM
TGI (HOP-62 NSCLC): > 100 µM
TGI (HOP-92 NSCLC): > 100 µM
TGI (HS 578T breast): > 100 µM
TGI (HT29 colon): > 100 µM
TGI (IGROV1 ovarian): > 100 µM
TGI (K-562 leukemia): > 100 µM
TGI (KM12 colon): > 100 µM
TGI (LOX IMVI melanoma): > 100 µM
TGI (M14 melanoma): > 100 µM
TGI (MALME-3M melanoma): > 100 µM
TGI (MCF7 breast): > 100 µM
TGI (MDA-MB-231 breast): > 100 µM
TGI (MDA-MB-435): > 100 µM
TGI (MDA-N): > 100 µM
TGI (MOLT-4 leukemia): > 100 µM
TGI (NCI-H226 lung): > 100 µM
TGI (NCI-H460 lung): > 100 µM
TGI (NCI/ADR-RES ovarian): > 100 µM
TGI (OVCAR-3 ovarian): > 100 µM
TGI (OVCAR-4 ovarian): > 100 µM
TGI (OVCAR-5 ovarian): > 100 µM
TGI (OVCAR-8 ovarian): > 100 µM
TGI (PC-3 prostate): > 100 µM
TGI (RPMI-8226 leukemia): > 100 µM
TGI (RXF 393 renal): > 100 µM
TGI (SF-268 CNS): > 100 µM
TGI (SF-295 CNS): > 100 µM
TGI (SF-539 CNS): > 100 µM
TGI (SK-MEL-2 melanoma): > 100 µM
TGI (SK-MEL-28 melanoma): > 100 µM
TGI (SK-MEL-5 melanoma): > 100 µM
TGI (SK-OV-3 ovarian): > 100 µM
TGI (SN12C renal): > 100 µM
TGI (SNB-19 CNS): > 100 µM
TGI (SNB-75 CNS): > 100 µM
TGI (SR leukemia): > 100 µM
TGI (SW-620 colon): > 100 µM
TGI (T-47D breast): > 100 µM
TGI (TK-10 renal): > 100 µM
TGI (U251 CNS): > 100 µM
TGI (UACC-257 melanoma): > 100 µM
TGI (UACC-62 melanoma): > 100 µM
TGI (UO-31 renal): > 100 µM

CCC/C(Cl)=N\OC(=O)Nc1ccc(F)cc1
TGI (786-0 renal): 17.5 µM
TGI (A498 renal): 35.3 µM
TGI (A549 NSCLC): > 100 µM
TGI (ACHN renal): 24.7 µM
TGI (BT-549 breast): 28.4 µM
TGI (CAKI-1 renal): 3.47 µM
TGI (CCRF-CEM leukemia): 3.85 µM
TGI (COLO 205 colon): 8.97 µM
TGI (DU-145 prostate): 31 µM
TGI (EKVX NSCLC): 32.6 µM
TGI (HCC-2998 colon): 32.4 µM
TGI (HCT-116 colon): 31.1 µM
TGI (HCT-15 colon): 19.3 µM
TGI (HL-60(TB) leukemia): 3.86 µM
TGI (HOP-62 NSCLC): 38.2 µM
TGI (HOP-92 NSCLC): 16.5 µM
TGI (HS 578T breast): > 86.4 µM
TGI (HT29 colon): > 69.6 µM
TGI (IGROV1 ovarian): 33.3 µM
TGI (K-562 leukemia): 4 µM
TGI (KM12 colon): 42.6 µM
TGI (LOX IMVI melanoma): 9.97 µM
TGI (M14 melanoma): 29.6 µM
TGI (MALME-3M melanoma): 20.5 µM
TGI (MCF7 breast): > 55 µM
TGI (MDA-MB-231 breast): 33.1 µM
TGI (MDA-MB-435): 31.9 µM
TGI (MDA-N): 30.2 µM
TGI (MOLT-4 leukemia): 14.9 µM
TGI (NCI-H226 lung): 43.4 µM
TGI (NCI-H23 lung): 41.2 µM
TGI (NCI-H460 lung): > 100 µM
TGI (NCI-H522 lung): 4.12 µM
TGI (NCI/ADR-RES ovarian): > 62.3 µM
TGI (OVCAR-3 ovarian): 9.76 µM
TGI (OVCAR-4 ovarian): 30.8 µM
TGI (OVCAR-5 ovarian): 36 µM
TGI (OVCAR-8 ovarian): > 60.9 µM
TGI (PC-3 prostate): 31.2 µM
TGI (RPMI-8226 leukemia): 15.6 µM
TGI (RXF 393 renal): 33.1 µM
TGI (SF-268 CNS): > 65 µM
TGI (SF-295 CNS): > 100 µM
TGI (SK-MEL-2 melanoma): 34.8 µM
TGI (SK-MEL-28 melanoma): 38.4 µM
TGI (SK-MEL-5 melanoma): 26.7 µM
TGI (SK-OV-3 ovarian): > 59.7 µM
TGI (SN12C renal): 31 µM
TGI (SNB-19 CNS): 40.9 µM
TGI (SNB-75 CNS): > 58 µM
TGI (SR leukemia): 5.49 µM
TGI (SW-620 colon): 27.2 µM
TGI (T-47D breast): 21.9 µM
TGI (TK-10 renal): 29.2 µM
TGI (U251 CNS): 34.8 µM
TGI (UACC-257 melanoma): 30.5 µM
TGI (UACC-62 melanoma): 27.5 µM
TGI (UO-31 renal): 31.5 µM

O=c1[nH]c2nc3ccccc3c(=O)n2/c1=C/c1ccc(Cl)cc1
TGI (786-0 renal): > 100 µM
TGI (A549 NSCLC): > 100 µM
TGI (ACHN renal): > 100 µM
TGI (BT-549 breast): 46.2 µM
TGI (CAKI-1 renal): > 100 µM
TGI (CCRF-CEM leukemia): > 100 µM
TGI (COLO 205 colon): > 100 µM
TGI (DU-145 prostate): > 100 µM
TGI (HCC-2998 colon): 65.3 µM
TGI (HCT-116 colon): > 100 µM
TGI (HCT-15 colon): > 100 µM
TGI (HL-60(TB) leukemia): > 100 µM
TGI (HOP-62 NSCLC): > 100 µM
TGI (HOP-92 NSCLC): > 100 µM
TGI (HS 578T breast): 65.2 µM
TGI (KM12 colon): > 100 µM
TGI (LOX IMVI melanoma): > 100 µM
TGI (M14 melanoma): > 100 µM
TGI (MALME-3M melanoma): > 100 µM
TGI (MCF7 breast): > 100 µM
TGI (MDA-MB-231 breast): > 100 µM
TGI (MDA-MB-435): 58.5 µM
TGI (MDA-N): 59.5 µM
TGI (MOLT-4 leukemia): > 100 µM
TGI (NCI-H23 lung): > 100 µM
TGI (NCI-H522 lung): 71.8 µM
TGI (NCI/ADR-RES ovarian): > 100 µM
TGI (OVCAR-3 ovarian): > 100 µM
TGI (OVCAR-4 ovarian): > 100 µM
TGI (OVCAR-5 ovarian): > 100 µM
TGI (OVCAR-8 ovarian): 58.6 µM
TGI (PC-3 prostate): > 100 µM
TGI (RPMI-8226 leukemia): > 100 µM
TGI (RXF 393 renal): > 100 µM
TGI (SF-268 CNS): > 100 µM
TGI (SF-295 CNS): > 100 µM
TGI (SF-539 CNS): 47.7 µM
TGI (SK-MEL-2 melanoma): > 100 µM
TGI (SK-MEL-28 melanoma): > 100 µM
TGI (SK-OV-3 ovarian): > 100 µM
TGI (SN12C renal): > 100 µM
TGI (SNB-19 CNS): 79.8 µM
TGI (SR leukemia): > 100 µM
TGI (SW-620 colon): 59.7 µM
TGI (T-47D breast): > 100 µM
TGI (TK-10 renal): > 100 µM
TGI (U251 CNS): > 100 µM
TGI (UACC-257 melanoma): > 100 µM
TGI (UACC-62 melanoma): > 100 µM
TGI (UO-31 renal): > 100 µM
